Source: patent US12263200B2, “Specific nutritional or therapeutic agent including a mixture of grape and blueberry” (priority 2015, dated 2025)

Test system: SK-N-SH cells
Test: Test 3: protection of neuronal cells against hydrogen peroxide (LDH cell death test, Resazurin cell survival test)
Assay type: cell-based, human
Conditions: for protection of cells against hydrogen peroxide, cumulative treatment, polyphenols taken individually (cell survival, Resazurin test): 1 μM, 1 nM and 1 pM for 3 consecutive days, then hydrogen peroxide 250 μM, analyzed 24 hours later; for protection of cells against hydrogen peroxide, acute treatment (cell death LDH release, survival Resazurin test): toxic hydrogen peroxide (250 μM), co-treated 24 hours at 1 μM, 1 nM and 1 pM
Procedure: For this, SK-N-SH cells, a cell line of human neuroblasts, were kept in a MEM supplemented with 10% (v/v) FBS, 100 U/ml of penicillin, 100 μg/ml of streptomycin and 1% sodium pyruvate (1 mM) in a humidified incubator at 37° C. with 5% CO2. The cells were grown to 80% confluence then seeded in multi-well cell culture plates to create different experimental models. The neuroprotective effect of the different compounds was analyzed by two different and complementary tests: the cell death quantification test and the cell survival test.
The cell death test is a colorimetric test based on measuring the activity of the lactate dehydrogenase (LDH) released by the cytosol from damaged cells in the supernatant.
The cell survival test was performed by conducting a Resazurin Test. Resazurin is an oxidation-reduction indicator of the permeable cell that can be used to monitor the number of viable cells by using tetrazolium compounds. The viable cells with an active metabolism can reduce resazurin into a resorufin product that is pink and fluorescent.
SK-N-SH neuronal cells were subjected to a toxic concentration of hydrogen peroxide (250 μM) and co-treated with epicatechin, catechin or ferulic acid at 1 μM, 1 nM and 1 pM for 24 hours. On completing the treatment, the cells were washed twice and cell death (release of LDH) and survival (Resazurin test) were analyzed.
In order to study the synergistic effect of epicatchin, catechin and ferulic acid, the SK-N-SH neuronal cells were subjected for 24 hours to a toxic concentration of hydrogen peroxide and co-treated with a mix comprising epicatechin, catechin and ferulic acid, said mix being tested at the different concentrations of 1 μM, 1 nM or 1 pM. On completing the treatment, the cells were washed twice and the cell death (release of LDH) and survival (Resazurin test) were analyzed.
The neuroprotective effects of the three polyphenols, i.e. epicatechin, catechin and ferulic acid, with a cumulative treatment, were then studied. The SK-N-SH cells were grown to 80% confluence then seeded in multi-well cell culture plates. […] On the third day, the cells were subjected to a toxic concentration of hydrogen peroxide (250 μM) and the protection was analyzed 24 hours later. On completing the treatment, the cells were washed twice and cell survival (Resazurin test) was analyzed.
In order to study the synergistic effect of epicatechin, catechin and ferulic acid, the SK-N-SH cells were grown to 80% confluence then seeded in multi-well cell culture plates. […] On the third day, the cells were subjected to a toxic concentration of hydrogen peroxide (125 μM and 250 μM) and the protection was analyzed 24 hours later. On completing the treatment, the cells were washed twice and cell survival (Resazurin test) was analyzed. […]

Compound | protection of cells against hydrogen peroxide, cumulative treatment, polyphenols taken individually (cell survival, Resazurin test) | protection of cells against hydrogen peroxide, acute treatment (cell death LDH release, survival Resazurin test)
catechin | do not protect the cells against hydrogen peroxide | do not protect the cells against hydrogen peroxide
COc1cc(/C=C/C(=O)O)ccc1O [ferulic acid] | do not protect the cells against hydrogen peroxide | do not protect the cells against hydrogen peroxide
